22 compounds from patent publication US12595253B2, “Benzamides of pyrazolylamino-pyrimidinyl derivatives, and compositions and methods thereof” (LYNK PHARMACEUTICALS CO. LTD., priority 2019, dated 2026) can be followed below.

Common to all, as to assay type: biochemical
In experiment [1] the target is T1, TYK2 (Homo sapiens, UniProt P29597).
T1 construct: purchased Carna Biosciences
Put plainly: TYK2 microfluidic kinase assay (Caliper EZ Reader II, FAM labeled peptide substrate). As to the method:
Compounds were tested against JAK1, JAK2, JAK2V617F and TYK2. Assay Formats: JAK activity was determined in the reaction buffer 50 mM HEPES, 0.01% Brij35, 10 mM MgCl2, 2 mM DTT by a microfluidic assay. The phosphorylation of a FAM labeled peptide substrate was monitored in the Caliper EZ Reader II (Perkin Elmer). The assay condition for each batch of enzyme (Carna Biosciences) was optimized to obtain 10% conversion rate of peptide substrate. The test compounds were dissolved in DMSO to a stock concentration of 10 mM. 3-fold serially diluted compounds with top concentration of 5 μM were pre-incubated with JAK1, JAK2, JAK2V617F or TYK2 at indicated concentrations for 10 min at ambient temperature. The final DMSO concentration of assay mixture was 1%. […] The reaction was stopped by adding 50 mM EDTA. The reaction time for JAK1, JAK2, JAK2V617F and TYK2 was 120 min, 20 min, 30 min and 10 min, respectively. […] And the well without compound but with equivalent DMSO was defined as no inhibition. The percent inhibition was calculated by the following formula. % Inhibition=(Conversionmax−Conversionsample)/(Conversionmax−Conversionmin)*100 • Conversionmax means the conversion rate in the positive well without addition of compound • Conversionmin means the conversion rate in the well without addition of enzyme • Conversionsample means the conversion rate of test compounds The dose-response (percent inhibition) curve was plotted and IC50 values were determined by GraphPad software.

Experiment [2] deals with T2, JAK1 (Homo sapiens, UniProt P23458).
T2 construct: purchased Carna Biosciences
Put plainly: JAK1 microfluidic kinase assay (Caliper EZ Reader II, FAM labeled peptide substrate). To be noted: IC50 JAK1 (5 nM) (1 m MATP), JAK1 5 nM, 1 mM ATP. A digest of the protocol:
(§1)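 3-fold serial dilutions, top 5 μM, 1% DMSO final; 10 min preincubation with enzyme, RT. Buffer: 50 mM HEPES, 0.01% Brij35, 10 mM MgCl2, 2 mM DTT. Enzyme batch tuned to 10% peptide conversion. EDTA stop, mobility-shift readout, IC50 fit.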

Experiment [3] concerns the target T3, JAK2 (Homo sapiens, UniProt O60674).
T3 construct: purchased Carna Biosciences
As to the kind of experiment: JAK2 microfluidic kinase assay (Caliper EZ Reader II, FAM labeled peptide substrate). Summed up:
as §1

The mark [4] stands for this setting: IC50 TYK2 ([…]) (1 mM ATP), TYK2 […], 1 mM ATP.
[5] abbreviates: IC50 JAK2 ([…]) (1 mM ATP), 1 mM ATP.

T1 sequence (P29597 whole entry): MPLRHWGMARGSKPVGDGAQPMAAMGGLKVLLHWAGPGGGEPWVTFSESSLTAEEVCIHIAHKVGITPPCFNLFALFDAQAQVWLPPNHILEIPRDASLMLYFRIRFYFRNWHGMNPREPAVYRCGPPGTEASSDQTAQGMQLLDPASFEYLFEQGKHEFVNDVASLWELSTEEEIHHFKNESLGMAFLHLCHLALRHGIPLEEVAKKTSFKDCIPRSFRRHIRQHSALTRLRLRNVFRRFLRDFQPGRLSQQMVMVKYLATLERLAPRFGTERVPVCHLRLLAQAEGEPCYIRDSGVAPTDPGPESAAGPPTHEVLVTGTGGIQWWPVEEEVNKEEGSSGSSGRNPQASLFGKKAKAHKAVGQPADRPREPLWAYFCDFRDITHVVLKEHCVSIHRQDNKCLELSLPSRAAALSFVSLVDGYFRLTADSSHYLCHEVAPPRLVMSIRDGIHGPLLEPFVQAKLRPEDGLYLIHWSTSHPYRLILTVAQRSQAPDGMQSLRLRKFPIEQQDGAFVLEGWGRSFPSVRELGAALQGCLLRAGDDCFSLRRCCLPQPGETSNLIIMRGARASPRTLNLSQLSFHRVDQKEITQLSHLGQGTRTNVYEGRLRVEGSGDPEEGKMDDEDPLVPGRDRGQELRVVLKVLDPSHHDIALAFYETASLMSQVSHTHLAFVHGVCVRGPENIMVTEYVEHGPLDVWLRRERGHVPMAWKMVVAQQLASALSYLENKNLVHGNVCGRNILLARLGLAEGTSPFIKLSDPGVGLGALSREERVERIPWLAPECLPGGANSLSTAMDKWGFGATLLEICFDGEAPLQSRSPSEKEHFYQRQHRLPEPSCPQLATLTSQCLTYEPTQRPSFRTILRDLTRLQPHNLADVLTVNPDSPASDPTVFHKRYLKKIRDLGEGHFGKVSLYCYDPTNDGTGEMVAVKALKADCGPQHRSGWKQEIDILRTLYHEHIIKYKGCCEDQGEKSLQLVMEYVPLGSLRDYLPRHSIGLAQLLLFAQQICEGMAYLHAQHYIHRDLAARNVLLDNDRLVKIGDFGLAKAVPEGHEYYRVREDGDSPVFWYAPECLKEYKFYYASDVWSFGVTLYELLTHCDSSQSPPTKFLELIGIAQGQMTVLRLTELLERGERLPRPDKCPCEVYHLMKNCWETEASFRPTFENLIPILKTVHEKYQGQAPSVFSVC
T2 sequence (P23458 whole entry): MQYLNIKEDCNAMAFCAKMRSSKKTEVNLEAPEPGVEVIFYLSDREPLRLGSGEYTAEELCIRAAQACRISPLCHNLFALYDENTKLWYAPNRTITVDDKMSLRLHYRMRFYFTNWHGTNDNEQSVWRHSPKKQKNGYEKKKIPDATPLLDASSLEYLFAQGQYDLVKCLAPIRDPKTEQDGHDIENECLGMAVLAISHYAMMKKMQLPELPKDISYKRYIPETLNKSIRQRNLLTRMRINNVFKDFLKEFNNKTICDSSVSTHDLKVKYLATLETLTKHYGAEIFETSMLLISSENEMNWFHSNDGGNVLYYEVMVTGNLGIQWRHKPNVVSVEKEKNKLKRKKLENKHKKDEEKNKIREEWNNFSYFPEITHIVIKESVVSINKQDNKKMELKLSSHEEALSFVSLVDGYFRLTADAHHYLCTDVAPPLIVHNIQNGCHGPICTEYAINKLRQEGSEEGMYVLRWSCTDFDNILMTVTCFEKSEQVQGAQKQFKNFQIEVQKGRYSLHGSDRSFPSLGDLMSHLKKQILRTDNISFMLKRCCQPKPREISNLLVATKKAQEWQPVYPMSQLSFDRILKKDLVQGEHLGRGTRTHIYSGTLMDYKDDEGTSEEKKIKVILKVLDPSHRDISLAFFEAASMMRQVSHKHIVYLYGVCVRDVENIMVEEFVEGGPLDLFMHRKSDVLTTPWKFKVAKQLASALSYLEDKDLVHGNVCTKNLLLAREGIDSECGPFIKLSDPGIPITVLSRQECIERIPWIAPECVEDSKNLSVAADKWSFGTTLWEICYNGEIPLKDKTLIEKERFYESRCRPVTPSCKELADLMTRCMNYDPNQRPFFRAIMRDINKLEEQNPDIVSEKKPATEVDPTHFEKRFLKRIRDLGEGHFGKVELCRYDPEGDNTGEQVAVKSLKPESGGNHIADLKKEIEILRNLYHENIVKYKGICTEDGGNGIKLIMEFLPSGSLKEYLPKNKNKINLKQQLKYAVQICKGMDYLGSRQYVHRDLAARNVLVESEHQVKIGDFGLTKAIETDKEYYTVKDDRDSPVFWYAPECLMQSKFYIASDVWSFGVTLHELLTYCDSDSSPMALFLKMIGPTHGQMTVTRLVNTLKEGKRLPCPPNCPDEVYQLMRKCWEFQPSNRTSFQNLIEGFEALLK
T3 sequence (O60674 whole entry): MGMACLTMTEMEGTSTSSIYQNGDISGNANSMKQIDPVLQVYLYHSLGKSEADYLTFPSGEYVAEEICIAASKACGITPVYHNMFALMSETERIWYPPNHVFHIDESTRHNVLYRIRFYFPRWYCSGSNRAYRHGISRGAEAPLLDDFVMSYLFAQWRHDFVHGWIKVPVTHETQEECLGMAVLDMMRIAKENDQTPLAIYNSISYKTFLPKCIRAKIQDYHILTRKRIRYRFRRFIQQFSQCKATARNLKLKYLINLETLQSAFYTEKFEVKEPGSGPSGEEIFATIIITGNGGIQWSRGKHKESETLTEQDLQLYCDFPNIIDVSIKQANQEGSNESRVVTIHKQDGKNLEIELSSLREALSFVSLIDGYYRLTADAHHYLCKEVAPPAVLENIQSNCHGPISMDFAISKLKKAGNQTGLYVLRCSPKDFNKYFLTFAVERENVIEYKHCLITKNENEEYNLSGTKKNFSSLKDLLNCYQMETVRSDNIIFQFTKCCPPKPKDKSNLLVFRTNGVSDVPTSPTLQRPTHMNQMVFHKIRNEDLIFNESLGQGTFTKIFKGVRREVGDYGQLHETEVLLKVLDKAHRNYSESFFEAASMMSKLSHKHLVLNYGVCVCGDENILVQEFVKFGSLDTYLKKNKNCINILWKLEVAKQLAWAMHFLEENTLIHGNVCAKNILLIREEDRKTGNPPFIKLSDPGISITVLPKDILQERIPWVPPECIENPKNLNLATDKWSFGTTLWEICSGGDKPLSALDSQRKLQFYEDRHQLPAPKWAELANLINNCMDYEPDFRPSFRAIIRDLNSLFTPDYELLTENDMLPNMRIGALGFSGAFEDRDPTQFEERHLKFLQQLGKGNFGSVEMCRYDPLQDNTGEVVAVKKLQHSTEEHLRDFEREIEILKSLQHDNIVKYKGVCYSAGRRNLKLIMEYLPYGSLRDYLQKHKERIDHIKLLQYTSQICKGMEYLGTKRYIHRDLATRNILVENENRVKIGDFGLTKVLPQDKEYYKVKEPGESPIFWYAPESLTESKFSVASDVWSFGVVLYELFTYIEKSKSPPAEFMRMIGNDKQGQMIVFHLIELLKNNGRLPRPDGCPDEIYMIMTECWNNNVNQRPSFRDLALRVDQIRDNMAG

For the compound `CC[C@@H](C#N)NC(=O)c1ccc(-c2nc(Nc3cnn(C4CCCN(C)C4)c3)ncc2C)cc1` (stereo partly drawn) [Example 211, N—((S)-1-cyanopropyl)-4-(5-methyl-2-((1-(1-methylpiperidin-3-yl)-1H-pyrazol-4-yl)amino)pyrimidin-4-yl)benzamide], the half-inhibitory concentration (IC50) in experiment [1] (setting [4]) was found to be 58.1 nM; in experiment [2] it was 20.5 nM; in experiment [3] (setting [5]), 0.66 nM.
`Cc1cnc(Nc2cnn(C3CCN(C(=O)CO)CC3)c2)nc1-c1ccc(C(=O)NCC#N)cc1` [Example 207, N-(cyanomethyl)-4-(2-((1-(1-(2-hydroxyacetyl)piperidin-4-yl)-1H-pyrazol-4-yl)amino)-5-methylpyrimidin-4-yl)benzamide]: the IC50 in experiment [1] (setting [4]) was 50.6 nM; in experiment [2], 15.2 nM; in experiment [3] (setting [5]), < 0.25 nM.
For `Cc1cnc(Nc2cnn(CCC#N)c2)nc1-c1ccc(C(=O)N[C@@H](C)C#N)cc1` [Example 216, (S)—N-(1-cyanoethyl)-4-(2-((1-(2-cyanoethyl)-1H-pyrazol-4-yl)amino)-5-methylpyrimidin-4-yl)benzamide], the results for the IC50 in experiment [1] (setting [4]), in experiment [2] and in experiment [3] (setting [5]) were 74 nM, 4.88 nM and 40.9 nM, respectively.
For the compound `N#CC1CN(C(=O)c2ccc(-c3nc(Nc4cnn(C5CC5)c4)ncc3C(F)F)cc2F)C1` [Example 126, 1-(4-(2-((1-Cyclopropyl-1H-pyrazol-4-yl)amino)-5-(difluoromethyl)pyrimidin-4-yl)-2-fluorobenzoyl)azetidine-3-carbonitrile], half-maximal inhibition in experiment [1] (IC50 TYK2 (10 nM) (Km ATP), TYK2 10 nM, Km ATP) (IC50) was put at 1770 nM.
On to `CC[C@@H](C#N)NC(=O)c1ccc(-c2nc(Nc3cnn(CCC#N)c3)ncc2Cl)cc1` [Example 190, (S)-4-(5-chloro-2-((1-(2-cyanoethyl)-1H-pyrazol-4-yl)amino)pyrimidin-4-yl)-N-(1-cyanopropyl)benzamide], for which the IC50 in experiment [1] (setting [4]) was 45 nM; in experiment [2], 3.83 nM; in experiment [3] (setting [5]) it was 22.1 nM.
With `N#CCNC(=O)c1ccc(-c2nc(Nc3cnn(C4CCN(C(=O)CO)CC4)c3)ncc2Cl)cc1` [Example 218, 4-(5-Chloro-2-((1-(1-(2-hydroxyacetyl)piperidin-4-yl)-1H-pyrazol-4-yl)amino)pyrimidin-4-yl)-N-(cyanomethyl)benzamide], the IC50 in experiment [1] (setting [4]) is 58 nM; in experiment [2], 13 nM; in experiment [3] (setting [5]), < 0.25 nM.
The matching figures for `Cc1cnc(Nc2cnn(C3CCNCC3)c2)nc1-c1ccc(C(=O)N[C@@H](C)C#N)cc1` [Example 170, (S)—N-(1-Cyanoethyl)-4-(5-methyl-2-((1-(piperidin-4-yl)-1H-pyrazol-4-yl)amino)pyrimidin-4-yl)benzamide]: 1.04 nM, 6.66 nM and 0.78 nM.
As for `Cc1cnc(Nc2cnn([C@@H]3C[C@@H](C)N[C@@H](C)C3)c2)nc1-c1ccc(C(=O)N[C@@H](C)C#N)cc1` [Example 231, N—((S)-1-cyanoethyl)-4-(2-((1-((2S,4s,6R)-2,6-dimethylpiperidin-4-yl)-1H-pyrazol-4-yl)amino)-5-methylpyrimidin-4-yl)benzamide], the IC50 in experiment [1] (setting [4]) was found to be 245 nM; in experiment [2], 80.6 nM; in experiment [3] (setting [5]), 1.63 nM.
`Cc1cnc(Nc2ccn(C)n2)nc1-c1ccc(C(=O)NCC#N)cc1` [Example 107, N-(Cyanomethyl)-4-(5-methyl-2-((1-methyl-1H-pyrazol-3-yl)amino)pyrimidin-4-yl)benzamide]: the IC50 was > 5000 nM in experiment [1] (setting [4]); 2310 nM in experiment [2]; 1150 nM in experiment [3] (setting [5]); 28.1 nM in experiment [3] (IC50 JAK2 ([…]) (Km ATP), Km ATP).
`Cc1cnc(Nc2cnn(CCO)c2)nc1-c1ccc(C(=O)N[C@H](C#N)C(C)C)cc1` [Example 191, (S)—N-(1-cyano-2-methylpropyl)-4-(2-((1-(2-hydroxyethyl)-1H-pyrazol-4-yl)amino)-5-methylpyrimidin-4-yl)benzamide]: the concentration for half-maximal inhibition (IC50) in experiment [1] (setting [4]) was found to be 53.9 nM; in experiment [2] it was 1.63 nM; in experiment [3] (setting [5]), 41.3 nM.
The corresponding values for `C[C@@H](C#N)NC(=O)c1ccc(-c2nc(Nc3cnn(C4CC(C)(C)OC(C)(C)C4)c3)ncc2Cl)cc1` [Example 206, (S)-4-(5-Chloro-2-((1-(2,2,6,6-tetramethyltetrahydro-2H-pyran-4-yl)-1H-pyrazol-4-yl)amino)pyrimidin-4-yl)-N-(1-cyanoethyl)benzamide] are 0.55 nM, 16.7 nM and < 0.25 nM.
For the compound `CC[C@@H](C#N)NC(=O)c1ccc(-c2nc(Nc3cnn(C4CCNCC4)c3)ncc2C)cc1` [Example 171, (S)—N-(1-Cyanopropyl)-4-(5-methyl-2-((1-(piperidin-4-yl)-1H-pyrazol-4-yl)amino)pyrimidin-4-yl)benzamide], the IC50 in experiment [1] (setting [4]) came out at 0.88 nM; in experiment [2] it was 1.84 nM; in experiment [3] (setting [5]), 0.78 nM.
The corresponding values for `Cc1cnc(Nc2cnn(C3C[C@@H](C)N[C@H](C)C3)c2)nc1-c1ccc(C(=O)N[C@@H](C)C#N)cc1` (stereo partly drawn) [Example 230, N—((S)-1-cyanoethyl)-4-(2-((1-(trans-2,6-dimethylpiperidin-4-yl)-1H-pyrazol-4-yl)amino)-5-methylpyrimidin-4-yl)benzamide] are 24.2 nM, 14.2 nM and 0.71 nM.
The corresponding values for `Cc1cnc(Nc2cnn([C@H]3C[C@@H](C)N[C@@H](C)C3)c2)nc1-c1ccc(C(=O)N[C@@H](C)C#N)cc1` [Example 232, N—((S)-1-cyanoethyl)-4-(2-((1-((2S,4r,6R)-2,6-dimethylpiperidin-4-yl)-1H-pyrazol-4-yl)amino)-5-methylpyrimidin-4-yl)benzamide] are 2.97 nM, 9.9 nM and 0.43 nM.
With `COC[C@@H](C#N)NC(=O)c1ccc(-c2nc(Nc3cnn(CCO)c3)ncc2C)cc1` [Example 221, (R)—N-(1-cyano-2-methoxyethyl)-4-(2-((1-(2-hydroxyethyl)-1H-pyrazol-4-yl)amino)-5-methylpyrimidin-4-yl)benzamide], the IC50 in experiment [1] (setting [4]) amounted to 62.3 nM; in experiment [2], 10.4 nM; in experiment [3] (setting [5]), 54.8 nM.
The matching figures for `Cc1cnc(Nc2cnn(C3CCNCC3)c2)nc1-c1ccc(C(=O)NCC#N)cc1` [Example 212, N-(cyanomethyl)-4-(5-methyl-2-((1-(piperidin-4-yl)-1H-pyrazol-4-yl)amino)pyrimidin-4-yl)benzamide]: 76.4 nM, 7.81 nM and 0.47 nM.
Take `CCC[C@@H](C#N)NC(=O)c1ccc(-c2nc(Nc3cnn(C4CCNCC4)c3)ncc2C)cc1` [Example 175, (S)—N-(1-Cyanobutyl)-4-(5-methyl-2-((1-(piperidin-4-yl)-1H-pyrazol-4-yl)amino)pyrimidin-4-yl)benzamide]: the IC50 in experiment [1] (setting [4]) came out at 2.22 nM; in experiment [2], 1.48 nM; in experiment [3] (setting [5]), 0.51 nM.
On to `CC[C@@H](C#N)NC(=O)c1ccc(-c2nc(Nc3cnn(C4CCCNC4)c3)ncc2C)cc1` (stereo partly drawn) [Example 210, N—((S)-1-cyanopropyl)-4-(5-methyl-2-((1-(piperidin-3-yl)-1H-pyrazol-4-yl)amino)pyrimidin-4-yl)benzamide], for which the results for the IC50 in experiment [1] (setting [4]), in experiment [2] and in experiment [3] (setting [5]) were 88.2 nM, 11.4 nM and 2.39 nM, respectively.
Take `C[C@@H](C#N)NC(=O)c1ccc(-c2nc(Nc3cn[nH]c3)ncc2Cl)cc1` [Example 188, (S)-4-(2-((1H-pyrazol-4-yl)amino)-5-chloropyrimidin-4-yl)-N-(1-cyanoethyl)benzamide]: the IC50 stood at 20.4 nM in experiment [1] (setting [4]), 2.9 nM in experiment [2] and 18.3 nM in experiment [3] (setting [5]).
In the case of `CC[C@@H](C#N)NC(=O)c1ccc(-c2nc(Nc3cnn(C(C)C(F)(F)F)c3)ncc2C)cc1` (single isomer, unassigned) [Example 225, N—((S)-1-Cyanopropyl)-4-(5-methyl-2-((1-((R*)-1,1,1-trifluoropropan-2-yl)-1H-pyrazol-4-yl)amino)pyrimidin-4-yl)benzamide], the IC50 in experiment [1] (setting [4]) came to 66.9 nM; in experiment [2], 8.95 nM; in experiment [3] (setting [5]), 42.6 nM.
The matching figures for `C[C@@H](C#N)NC(=O)c1ccc(-c2nc(Nc3cnn(CC(N)=O)c3)ncc2Cl)cc1` [Example 47, (S)-4-(2-((1-(2-amino-2-oxoethyl)-1H-pyrazol-4-yl)amino)-5-chloropyrimidin-4-yl)-N-(1-cyanoethyl)benzamide]: 50.6 nM, 5.67 nM and 36.6 nM.
Consider `Cc1cnc(Nc2cn[nH]c2)nc1-c1ccc(C(=O)N[C@@H](C)C#N)cc1` [Example 199, (S)-4-(2-((1H-Pyrazol-4-yl)amino)-5-methylpyrimidin-4-yl)-N-(1-cyanoethyl)benzamide], for which the results for the IC50 in experiment [1] (setting [4]) and in experiment [3] (setting [5]) were 30.2 nM and 30.8 nM, respectively.
